From paper PMC8877061, “Antifungal and Antibiofilm Activity of Cyclic Temporin L Peptide Analogues against Albicans and Non-Albicans Candida Species” (Pharmaceutics, 2022)
Read-outs that look alike come from different tables or passages of the source. Positions of bridges follow the written chain, without caps; N, C: chain ends. Non-standard residues stand in square brackets, D forms with d. Residues, ends and D or L forms follow the SMILES beside them. Triazole bridges read from a SMILES are 1,4-linked. dLys(N3) = [N-]=[N+]=NCCCC[C@@H](N)C(=O)O; Lys(N3) = [N-]=[N+]=NCCCC[C@H](N)C(=O)O; S5 = C=CCCC[C@](C)(N)C(=O)O; dPra = C#CC[C@@H](N)C(=O)O; Pra = C#CC[C@H](N)C(=O)O

What was measured:
C. albicans ATCC 90028 = type: cell-based
Experimental: C. albicans ATCC 90028, C. auris DSM 21092, C. glabrata DSM 11226, C. tropicalis DSM11951 and C. parapsilosis DSM 4874 grown on YPD Agar (1% w/v yeast extract, 2% w/v peptone, 2% w/v glucose, 1.5% Agar) were cultured in Tryptone soya broth supplemented with 0.1% glucose for 16–18 h at 37 °C, washed twice using sterile phosphate-buffered saline (PBS) and standardized to […] as required for the experiments. RPMI1640 medium (Thermo Fisher Scientific, Waltham, MA, USA) buffered to a pH of 7.0 with 0.165 M MOPS was used for growing the biofilms of all Candida species.
The antifungal activity of peptides against all five Candida species was determined according to CLSI-M27-A3 [33], as reported previously. Briefly, the compounds were tested at concentrations ranging from […] to 50 μM, and the organism suspensions were adjusted to an inoculum of 10^6 cell/mL at OD 590 nm in RPMI 1640, added to the 96-well plate and incubated at 37 °C for 24 h. The minimum inhibitory concentration (MIC) values were determined as the lowest concentration inhibiting fungal growth at 590 nm using a microplate reader (Synergy™ H4; BioTek Instruments, Inc., Winooski, VT, USA). […] The MFC was the lowest concentration that yielded no colony growth on the agar. The MFC/MIC ratio was calculated to determine whether the substance had fungistatic (MFC/MIC ≥ 4) or fungicidal (MFC/MIC < 4) activity.

C. parapsilosis DSM 5784 = type: cell-based
[1] = CLSI-M27-A3, RPMI 1640, 10^6 cell/mL, 37 °C, 24 h, read at 590 nm, tested 6.5 to 50 μM

| Structure (SMILES) | MIC, C. albicans ATCC 90028 (C. albicans ATCC 90028; ATCC 90028, 24 h) [µM] | MIC, C. parapsilosis DSM 5784 (C. parapsilosis DSM 5784; DSM 5784, 24 h) [µM] | MIC, C. albicans ATCC 90028 (C. albicans ATCC 90028; [1]) [µM] | MIC, C. parapsilosis DSM 5784 (C. parapsilosis DSM 5784; [1]) [µM] |
| --- | --- | --- | --- | --- |
| CC(C)C[C@H](NC(=O)[C@@H]1CCC(=O)NCCCC[C@H](NC(=O)[C@H](Cc2c[nH]c3ccccc23)NC(=O)[C@@H]2CCCN2C(=O)[C@@H](NC(=O)[C@@H](N)Cc2ccccc2)C(C)C)C(=O)N[C@@H](CO)C(=O)N[C@@H](CCCCN)C(=O)N[C@@H](Cc2ccccc2)C(=O)N[C@H](CC(C)C)C(=O)NCC(=O)N[C@@H](CCCNC(=N)N)C(=O)N1)C(N)=O [compound 12] (H-FVPWKSKF[dL]GREL-NH2; lactam 5-12; N-terminus assumed) | >50 | >50 | – | – |
| CC[C@H](C)[C@@H]1NC(=O)[C@H](CCCNC(=N)N)NC(=O)CNC(=O)[C@H](NC(=O)[C@H](Cc2ccccc2)NC(=O)[C@H](CCCCN)NC(=O)[C@H](CO)NC(=O)[C@H](Cc2ccccc2)NC(=O)[C@H](Cc2c[nH]c3ccccc23)NC(=O)[C@@H]2CCCN2C(=O)[C@@H](NC(=O)[C@@H](N)Cc2ccccc2)C(C)C)CCCCNC(=O)CC[C@@H](C(N)=O)NC1=O [compound 1] (H-FVPWFSKF[dK]GRIE-NH2; lactam 9-13; N-terminus assumed) | – | – | >50 | >50 |
| CC[C@H](C)[C@H](NC(=O)[C@H](CCCNC(=N)N)NC(=O)[C@]1(C)CCCC=CCCC[C@](C)(NC(=O)[C@H](Cc2ccccc2)NC(=O)[C@H](Cc2c[nH]c3ccccc23)NC(=O)[C@@H]2CCCN2C(=O)[C@@H](NC(=O)[C@@H](N)Cc2ccccc2)C(C)C)C(=O)N[C@@H](CCCCN)C(=O)N[C@@H](Cc2ccccc2)C(=O)N[C@H](CC(C)C)C(=O)N1)C(=O)N[C@@H](CC(C)C)C(N)=O [compound 17] (H-FVPWF[S5]KF[dL][S5]RIL-NH2; staple 6-10; N-terminus assumed) | >50 | >50 | – | – |
| CC[C@H](C)[C@H](NC(=O)[C@H](CCCNC(=N)N)NC(=O)[C@@H]1CCCCn2cc(nn2)C[C@H](NC(=O)[C@H](Cc2ccccc2)NC(=O)[C@H](Cc2c[nH]c3ccccc23)NC(=O)[C@@H]2CCCN2C(=O)[C@@H](NC(=O)[C@@H](N)Cc2ccccc2)C(C)C)C(=O)N[C@@H](CCCCN)C(=O)N[C@@H](Cc2ccccc2)C(=O)N[C@H](CC(C)C)C(=O)N1)C(=O)N[C@@H](CC(C)C)C(N)=O [compound 8] (H-FVPWF[Pra]KF[dL][Lys(N3)]RIL-NH2; triazole 6-10; N-terminus assumed) | >50 | >50 | – | – |
| CC[C@H](C)[C@@H]1NC(=O)[C@H](CCCNC(=N)N)NC(=O)CNC(=O)[C@H](NC(=O)[C@H](Cc2ccccc2)NC(=O)[C@H](CCCCN)NC(=O)[C@H](CO)NC(=O)[C@H](Cc2ccccc2)NC(=O)[C@H](Cc2c[nH]c3ccccc23)NC(=O)[C@@H]2CCCN2C(=O)[C@@H](NC(=O)[C@@H](N)Cc2ccccc2)C(C)C)Cc2cn(nn2)CCCC[C@@H](C(N)=O)NC1=O [compound 6] (H-FVPWFSKF[dPra]GRI[Lys(N3)]-NH2; triazole 9-13; N-terminus assumed) | >50 | >50 | – | – |
| CC[C@H](C)[C@H](NC(=O)[C@H](CCCNC(=N)N)NC(=O)CNC(=O)[C@@H](CC(C)C)NC(=O)[C@@H]1CCC(=O)NCCCC[C@H](NC(=O)[C@@H]2CCCN2C(=O)[C@@H](NC(=O)[C@@H](N)Cc2ccccc2)C(C)C)C(=O)N[C@@H](Cc2ccccc2)C(=O)N[C@@H](CO)C(=O)N[C@@H](CCCCN)C(=O)N1)C(=O)N[C@@H](CC(C)C)C(N)=O [compound 5] (H-FVPKFSKE[dL]GRIL-NH2; lactam 4-8; N-terminus assumed) | >50 | >50 | – | – |
| CC(C)C[C@H](NC(=O)[C@@H]1CCC(=O)NCCCC[C@H](NC(=O)[C@H](CCCCN)NC(=O)[C@H](CO)NC(=O)[C@H](Cc2ccccc2)NC(=O)[C@H](Cc2c[nH]c3ccccc23)NC(=O)[C@@H]2CCCN2C(=O)[C@@H](NC(=O)[C@@H](N)Cc2ccccc2)C(C)C)C(=O)N[C@H](CC(C)C)C(=O)NCC(=O)N[C@@H](CCCNC(=N)N)C(=O)N1)C(N)=O [compound 2] (H-FVPWFSKK[dL]GREL-NH2; lactam 8-12; N-terminus assumed) | >50 | >50 | – | – |
| CC[C@H](C)[C@H](NC(=O)[C@H](CCCNC(=N)N)NC(=O)CNC(=O)[C@H]1CCCCn2cc(nn2)C[C@H](NC(=O)[C@H](Cc2c[nH]c3ccccc23)NC(=O)[C@@H]2CCCN2C(=O)[C@@H](NC(=O)[C@@H](N)Cc2ccccc2)C(C)C)C(=O)N[C@@H](CO)C(=O)N[C@@H](CCCCN)C(=O)N[C@@H](Cc2ccccc2)C(=O)N1)C(=O)N[C@@H](CC(C)C)C(N)=O [compound 9] (H-FVPW[Pra]SKF[dLys(N3)]GRIL-NH2; triazole 5-9; N-terminus assumed) | >50 | >50 | – | – |
| CC(C)C[C@H](NC(=O)[C@@H]1CCCCn2cc(nn2)C[C@H](NC(=O)[C@H](Cc2c[nH]c3ccccc23)NC(=O)[C@@H]2CCCN2C(=O)[C@@H](NC(=O)[C@@H](N)Cc2ccccc2)C(C)C)C(=O)N[C@@H](CO)C(=O)N[C@@H](CCCCN)C(=O)N[C@@H](Cc2ccccc2)C(=O)N[C@H](CC(C)C)C(=O)NCC(=O)N[C@@H](CCCNC(=N)N)C(=O)N1)C(N)=O [compound 14] (H-FVPW[Pra]SKF[dL]GR[Lys(N3)]L-NH2; triazole 5-12; N-terminus assumed) | >50 | >50 | – | – |
| CC[C@H](C)[C@H](NC(=O)[C@H](CCCNC(=N)N)NC(=O)CNC(=O)[C@@H](CC(C)C)NC(=O)[C@@H]1CCCCn2cc(nn2)C[C@H](NC(=O)[C@@H]2CCCN2C(=O)[C@@H](NC(=O)[C@@H](N)Cc2ccccc2)C(C)C)C(=O)N[C@@H](Cc2ccccc2)C(=O)N[C@@H](CO)C(=O)N[C@@H](CCCCN)C(=O)N1)C(=O)N[C@@H](CC(C)C)C(N)=O [compound 10] (H-FVP[Pra]FSK[Lys(N3)][dL]GRIL-NH2; triazole 4-8; N-terminus assumed) | >50 | >50 | – | – |
| CC[C@H](C)[C@H](NC(=O)[C@H](CCCNC(=N)N)NC(=O)CNC(=O)[C@H]1CCC(=O)NCCCC[C@H](NC(=O)[C@H](Cc2c[nH]c3ccccc23)NC(=O)[C@@H]2CCCN2C(=O)[C@@H](NC(=O)[C@@H](N)Cc2ccccc2)C(C)C)C(=O)N[C@@H](CO)C(=O)N[C@@H](CCCCN)C(=O)N[C@@H](Cc2ccccc2)C(=O)N1)C(=O)N[C@@H](CC(C)C)C(N)=O [compound 4] (H-FVPWKSKF[dE]GRIL-NH2; lactam 5-9; N-terminus assumed) | >50 | >50 | – | – |
| CC[C@H](C)[C@@H]1NC(=O)[C@H](CCCNC(=N)N)NC(=O)CNC(=O)[C@@H](CC(C)C)NC(=O)[C@H](Cc2ccccc2)NC(=O)[C@H](CCCCN)NC(=O)[C@@H](NC(=O)[C@H](Cc2ccccc2)NC(=O)[C@H](Cc2c[nH]c3ccccc23)NC(=O)[C@@H]2CCCN2C(=O)[C@@H](NC(=O)[C@@H](N)Cc2ccccc2)C(C)C)Cc2cn(nn2)CCCC[C@@H](C(N)=O)NC1=O [compound 13] (H-FVPWF[Pra]KF[dL]GRI[Lys(N3)]-NH2; triazole 6-13; N-terminus assumed) | >50 | >50 | – | – |
